Data on seven compounds can be found in patent publication US20050048539A1, “Methods to monitor molecule conformation and molecule/molecule proximity” (The General Hospital Corporation, priority 2003, published 2005).

Entries after “also recorded” stand apart in the source; their conditions may differ.

The test system of data set [1] is Aβ40, Aβ42 and Aβ1-x. Nature of the data set: Aβ ELISA of conditioned medium of PS70 cells treated with NSAIDs. Format: cell-based, human. As to conditions: 24 hours; for Aβ1-x level (ELISA): high doses. Here is the method: (§1) Cell culture and drug treatment: PS70 cells, CHO cells stably overexpressing wild-type human PS1 and APP 751 (Xia, W. et al., J. Biol. Chem. 272, 7977-7982, 1997), mouse N2a neuroblastoma, or human embryonic kidney (HEK) cells were used in this study. Cells were cultured in OPTI-MEMI with 5% fetal bovine serum at 37° C. with 5% CO2 in a tissue culture incubator. Primary cultured hippocampal-cortical neurons were prepared from embryonic day 16-18 mouse brain as described (Berezovska, O. et al., Brain Res Mol Brain Res 69: 273-280, 1999).
(§2) The NSAIDs (S)-ibuprofen (250 mM, Biomol, Plymouth Meeting, Penn.), (R)-ibuprofen (250 mM, Biomol), and flurbiprofen (250 mM, Calbiochem, San Diego, Calif.) were dissolved in 100% ethanol. […] Cells were plated onto either 12-well plates (for Aβ determinations) or onto 4-chamber slides (FLIM studies) and treated for 24 hours with NSAIDs prior to the analysis. A vehicle control chamber treated with ethanol or DMSO (0.1%) was included in each experiment. Cell toxicity was analyzed for all drugs tested by measuring adenylate kinase levels using Toxi-light reagent (Camdex, New Jersey).
(§3) ELISA, BACE-specific enzymatic activity assay and Western Blots: For Aβ ELISA we used 500 μl of conditioned medium collected 24 hours post-treatment. Formic acid-extractable Aβ in the mouse brain was measured as described (Fukumoto, H.,et al., Am. J. Pathol. 164, 719-725, 2004). The capture antibody was BNT77 and the detection antibody was horseradish peroxidase (HRP)-conjugated BA27 for Aβ40 and HRP-conjugated BC05 for Aβ42 (Asami-Odaka, A. et al., Biochemistry 34: 10272-10278, 1995). We used BAN50 as a capture antibody and HRP-conjugated BNT77 as a detection antibody for Aβ1-x (a gift from Takeda, Japan) (Asami-Odaka, A. et al., Biochemistry 34: 10272-10278, 1995). BACE activity was measured using a sensitive BACE-specific enzymatic activity assay (Fukumoto, H.,et al., Am. J. Pathol. 164, 719-725, 2004).
We treated Chinese hamster ovary (CHO) cells stably transfected with APP and PS1 (PS70 cells) with several NSAIDs at different doses for 24 hours and measured Aβ40 and Aβ42 using ELISA (FIG. 14).
On the technique in general: ELISA stands for enzyme-linked immunosorbent assay.

Data set [2] is described as follows: Chow consumption and mouse weight during ibuprofen treatment. Format: in vivo. As to conditions: S-ibuprofen 375 ppm in diet vs control diet, 15 days. Here is the method: (§4) Ibuprofen treatment of wtPS1 mice: Three-month-old transgenic mice over-expressing wtPS1 were treated with S-ibuprofen (375 ppm in diet, Research Diets, New Brunswick, N.J.) or a control diet for 15 days (6 mice per group). […] At the end of the experimental period animals were sacrificed by CO2 inhalation. The brains were dissected, half of each brain was frozen on dry ice for Aβ ELISA and BACE activity analysis and the other half was fixed in 4% paraformaldehyde for immunohistochemistry.

Data set [3] addresses T1, BACE (Mus musculus, UniProt P56818).
T1 construct: from tissue; host or cells: frozen brain of wtPS1 transgenic mice
The data set is described as follows: BACE-specific enzymatic activity assay in brain of treated mice. The class given is in vivo. The settings on record: S-ibuprofen 375 ppm in diet vs control diet, 15 days. Here is the method: as §3
(§5) Ibuprofen treatment of wtPS1 mice: Three-month-old transgenic mice over-expressing wtPS1 were treated with S-ibuprofen (375 ppm in diet, Research Diets, New Brunswick, N.J.) or a control diet for 15 days (6 mice per group). […] At the end of the experimental period animals were sacrificed by CO2 inhalation. The brains were dissected, half of each brain was frozen on dry ice for Aβ ELISA and BACE activity analysis and the other half was fixed in 4% paraformaldehyde for immunohistochemistry. […]

The test system of data set [4] is Aβ42 and Aβ40. Nature of the data set: Brain Aβ ELISA in wtPS1 transgenic mice treated with S-ibuprofen. The class given is in vivo, mouse. As to conditions: 3-month-old wtPS1 transgenic mice, 375 ppm in diet, 15 days; P=0.03. The method, then:
as §3, §5

The target in data set [5] is T2, PS1 (Homo sapiens, UniProt P49768). The data set is described as follows: In vivo FLIM assay of proximity between N- and C-termini of PS1 in brain sections. Also noted: expressed in transfected cells; host or cells: primary hippocampal-cortical neurons from embryonic day 16-18 mouse brain; species or system mouse. As to conditions: mice, 375 ppm in diet, 15 days; control diet 1934±161 psec; P=0.02. The method, then:
as §4
Half of the brain was fixed, sectioned at 35 μm, and immunostained with antibodies against the N- and C-termini of PS1.

The target of data set [6] is T3, APP and PS1 (Homo sapiens, UniProt P49768).
T3 construct: expressed in transfected cells
The data set is described as follows: FLIM assay for PS1-APP proximity after NSAID treatment. The class given is cell-based. As to conditions: donor APP-CT-FITC, acceptor loop PS1-Cy3, 24 h, 375 μM S-ibuprofen, 375 μM flurbiprofen, 500 μM aspirin, DMSO vehicle 2127 ± 224. The method, then:
as §1, §2

Data set [7] has as its target T2, PS1. Nature of the data set: FLIM assay of PS1 N-/C-termini proximity in primary cultured neurons. Format: cell-based, mouse. Also noted: expressed in transfected cells; host or cells: primary hippocampal-cortical neurons from embryonic day 16-18 mouse brain. The method, then:
as §1, with “1999). Transfection protocol: Transient transfection in cells was performed using Superfect reagents (Qiagen, Valencia, Calif.) according to manufacturer's instructions. Primary cultured neurons were transfected with wild-type PS1 plasmid using the method of calcium phosphate co-precipitation as described (Berezovska, O. et al., Brain Res Mol Brain Res 69: 273-280, 1999; Chen, C. et al., Biotechniques 6: 632-638, 1987).” for “1999).”

Data set [8] deals with T2, PS1. Nature of the data set: Confocal staining with biotinylated WPE31C as histological reagent (wt PS1 vs D257A PS1 cells). The settings on record: cells expressing wt PS1. The class given is cell-based. Also noted: expressed in transfected cells. The method, then: PS1 immunostaining co-localizes with CY3-streptavidin labeled WPE-31C-bi in the cells expressing wt PS1. […] Bar=[…].
We reasoned that an agent that binds to the active site would compete with APP, blocking the APP-PS1 interaction if the first possibility were the case. […] The cells were treated with WPE-31C to examine whether APP would still be associated with the PS1 loop region. […] It has been observed that transition state analogues like WPE31C bind specifically to the heterodimeric form of PS1, and not to the holoprotein prior to cleavage. […] We used a biotinylated form of WPE31C (Esler, W. P. et al., Proc Natl Acad Sci USA 99: 2720-2725, 2002) as a histological reagent. […] Of note, there was less WPE-31C/Cy3 signal in the proximal perinuclear compartment, compared with PS1 immunoreactivity, confirming our observation that some of this PS1 is in a different conformation and is likely not proteolytically active.

In data set [9] the test system is APP and PS1 (PS1/γ-secretase complex). The data set is described as follows: FLIM assay for PS1 loop-APP C-terminus proximity in CHO cells treated with γ-secretase inhibitors. Format: cell-based, Chinese hamster. As to conditions: WT PS1 CHO cells, donor PS1 loop-FITC, acceptor APP770-CY3, 4 h with DAPT 500 nM or WPE-III-31C 1 μM, non-FRET control 2600 ± 110, untreated 2290 ± 216. Here is the method:
Chinese hamster ovary (CHO) cells stably transfected with APP770 and either wild type PS1 (wt PS1) or Aspartate mutant PS1 (D257A PS1) were grown in OPTI-MEM with 5% fetal bovine serum and appropriate antibiotics (Puromycin or Zeocin, respectively, (Berezovska et al., 2000)).
Cells were fixed and immunostained 24 hrs posttransfection as described previously (Jack, C. et al., Brain Res Mol Brain Res 87: 166-174, 2001). We used a polyclonal C8 antibody (Selkoe, D. et al., Proc Natl Acad Sci USA 85: 7341-7345, 1988) to detect the C-terminus of APP. A monoclonal antibody to the loop region of PS1 (Chemicon, Temecula, Calif.) was used to identify the γ-secretase complex. PS1 N-terminal X81 antibody was a gift from D. Selkoe (Brigham and Women's Hospital, Boston, Mass.); PS1 C-terminal antibody was purchased from R&D Systems, Inc., Minneapolis, Minn.). For FRET/FLIM studies we chose Cy3-labeled goat anti-rabbit as the acceptor fluorophore, and FITC-labeled goat anti-mouse as the donor fluorophore.
Fluorescence Lifetime Imaging Microscopy (FLIM) relies on the observation that fluorescence lifetimes (the time of fluorophore emission after brief excitation, measured in picoseconds) are shorter in the presence of a FRET acceptor. […] We used a high-speed Hamamatsu detector and hardware/software from Becker and Hickl (Berlin, Germany) to measure fluorescence lifetimes on a pixel-by-pixel basis. […]
The following controls were used to establish and validate the FLIM assay: (1) As a negative control, FITC lifetime was measured in the absence of the acceptor. […] (2) As a positive control, FITC lifetime was measured in the presence of an acceptor. […] By contrast, the FITC fluorescence lifetime (FLIM image) within the area where the acceptor was photobleached reverts to a longer lifetime (color-coded as blue), identical to the lifetime of FITC in the absence of an acceptor (as in the negative control, FIG. 7A). […]
If there was no interaction, lifetimes on the order of ˜2600 psec were observed. If FRET was detected, a population with a statistically shorter lifetime (<˜2400 psec) was observed.

T1 sequence (P56818 46-501): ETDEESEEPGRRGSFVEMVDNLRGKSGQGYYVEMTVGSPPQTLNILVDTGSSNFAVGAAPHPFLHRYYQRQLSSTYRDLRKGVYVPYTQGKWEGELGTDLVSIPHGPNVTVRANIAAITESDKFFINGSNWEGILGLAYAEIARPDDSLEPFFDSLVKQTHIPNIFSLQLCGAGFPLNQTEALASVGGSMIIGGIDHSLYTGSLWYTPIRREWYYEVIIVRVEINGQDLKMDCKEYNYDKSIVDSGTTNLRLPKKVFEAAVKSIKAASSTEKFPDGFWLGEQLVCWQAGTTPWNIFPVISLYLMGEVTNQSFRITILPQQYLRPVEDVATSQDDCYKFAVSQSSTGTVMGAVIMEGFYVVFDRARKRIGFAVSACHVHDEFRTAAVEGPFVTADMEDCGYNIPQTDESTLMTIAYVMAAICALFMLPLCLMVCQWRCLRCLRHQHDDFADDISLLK

In the case of `CC(C)Cc1ccc([C@@H](C)C(=O)O)cc1` [R-ibuprofen, (R)-ibuprofen], the “Aβ42 level (ELISA)” value in [1] was “marked reduction; also recorded: dose-dependent reduction”.
`CC(C)Cc1ccc([C@H](C)C(=O)O)cc1` [S-ibuprofen, (S)-ibuprofen]: the “amount of chow consumed, mouse weight” value in data set [2] is reported as “no differences”. In addition, the “BACE activity in brain” value in data set [3] is “No differences”. Further, the “reduction of Aβ42/Aβ40 ratio in the brain vs control diet” value in data set [4] was determined as 12%. For the same compound, the “FITC lifetime, brain sections stained for PS1 N- and C-termini” value in data set [5] was found to be 2205±104 psec. Moreover, in data set [6], the “FITC lifetime APP-CT (mean ± SD)” value is 2307 ± 107 psec. The “FITC lifetime APP-CT (mean ± SD)” value in data set [6] (listed as ibuprofen) is listed as “increased FITC lifetime”. Moreover, the “FITC lifetime (PS1 N- to C-termini distance)” value in data set [7] was “significantly increased”. Also, in data set [1], the “Aβ40 level (ELISA)” value is “reduced”, the “Aβ42 level (ELISA)” value is listed as “marked reduction; also recorded: dose-dependent reduction” and the “Aβ1-x level (ELISA)” value is given as “did not observe a change”.
In the case of `COC(=O)[C@@H](NC(=O)[C@H](CC(C)C)NC(=O)N(Cc1ccccc1)C[C@@H](O)[C@H](Cc1ccccc1)NC(=O)OC(C)(C)C)C(C)C` [WPE-III-31C], the “CY3-streptavidin staining / co-localization with PS1 immunostaining” value in [8] was “strongly stained”. The “FITC Lifetime (psec) mean ± SD” value in [9] (listed as WPE31C) is 1972 ± 264 (n = 30) psec; in data set [9] (listed as WPE-31C), “tight association between APP and PS1”.
Take `CC(=O)Oc1ccccc1C(=O)O` [aspirin]: in data set [1], the “Aβ40 level (ELISA)” value is given as “No or small change” and the “Aβ42 level (ELISA)” value is on record as “No or small change”.
As for `CC(C(=O)O)c1ccc(-c2ccccc2)c(F)c1` (centres unmarked) [flurbiprofen], in data set [1], the “Aβ40 level (ELISA)” value is listed as “reduced”, the “Aβ42 level (ELISA)” value was “marked reduction; also recorded: dose-dependent reduction” and the “Aβ1-x level (ELISA)” value is recorded as “did not observe a change”.
In the case of `COc1ccc2c(c1)c(CC(=O)O)c(C)n2C(=O)c1ccc(Cl)cc1` [indomethacin], in data set [7], the “FITC lifetime (PS1 N- to C-termini distance)” value is “significantly increased”. In data set [1], the “Aβ42 level (ELISA)” value is on record as “marked reduction; also recorded: dose-dependent reduction” and the “Aβ1-x level (ELISA)” value is “did not observe a change”.
In the case of `COc1ccc2cc([C@H](C)C(=O)O)ccc2c1` [naproxen], the “FITC lifetime (PS1 N- to C-termini distance)” value in data set [7] is “not”. In data set [1], the “Aβ40 level (ELISA)” value is listed as “No or small change”, the “Aβ42 level (ELISA)” value is on record as “No or small change” and the “Aβ1-x level (ELISA)” value is “did not observe a change”.
